# Values quoted from earlier work, collected in patent publication US11747352B2 (Concordia University, Inc., priority 2017, dated 2023).
# Read-outs that look alike come from different tables or passages of the source.
# What was measured:
# [1] = cited from earlier work
# [2] = cited from earlier work; remark: listed apart in the source
compound,measurement,setting,value
CCC1(c2ccccc2)C(=O)NC(=O)N(C)C1=O (stereo not drawn) [Methylphenobarbital],HALF-LIFE,[1]; in vivo,11 to 67 h
CCN(CC)CCNC(=O)c1cc(Cl)c(N)cc1OC [Metoclopramide],HALF LIFE,[1]; Table CYP2D6,5 to 6 h
COCCc1ccc(OCC(O)CNC(C)C)cc1 (stereo not drawn) [Metoprolol],HALF LIFE,[1]; Table CYP2D6,3 to 7 h
CN1CCN2c3ccccc3Cc3ccccc3C2C1 (stereo not drawn) [Mianserin],ORAL BIOAVAILABILITY,[2]; Table CYP2D6,20-30% ^
Cc1cc(-c2ccccc2)nnc1NCCN1CCOCC1 [Minaprine],HALF LIFE,[1]; Table CYP2D6,2 to 2.5 h
Cc1ccnc2c1NC(=O)c1cccnc1N2C1CC1 [Nevirapine],ORAL BIOAVAILABILITY,[2]; Table CYP3A4,80-94% ^
CN(C)C[C@H]1CCCC[C@]1(O)c1cccc(O)c1 [O-desmethyltramadol],HALF LIFE,[1]; Table CYP2D6,9 h
Cc1cc2c(s1)Nc1ccccc1N=C2N1CCN(C)CC1 [Olanzapine],HALF LIFE,[1]; Table CYP1A2,21 to 54 h
Cc1nccn1CC1CCc2c(c3ccccc3n2C)C1=O (stereo not drawn) [Ondansetron],HALF LIFE,[1]; Table CYP1A2,3 to 6 h
same,HALF LIFE,[1]; Table CYP2D6,3 to 6.2 h
COc1ccc2c3c1O[C@H]1C(=O)CC[C@@]4(O)[C@@H](C2)N(C)CC[C@]314 [Oxycodone],ORAL BIOAVAILABILITY,[2]; Table CYP2D6,60-87% ^
same,ORAL BIOAVAILABILITY,[2]; Table CYP3A4,60-87% ^
CC(=O)O[C@H]1C(=O)[C@@]2(C)[C@H]([C@H](OC(=O)c3ccccc3)[C@]3(O)C[C@H](OC(=O)[C@H](O)[C@@H](NC(=O)c4ccccc4)c4ccccc4)C(C)=C1C3(C)C)[C@]1(OC(C)=O)CO[C@@H]1C[C@@H]2O [Paclitaxel],HALF-LIFE,[1]; Table CYP3A4,13.1 to 57.7 h
CC(=O)Nc1ccc(O)cc1 [Paracetamol],HALF LIFE,[1]; Table CYP1A2,1 to 4 h
Fc1ccc([C@@H]2CCNC[C@H]2COc2ccc3c(c2)OCO3)cc1 [Paroxetine],HALF LIFE,[1]; Table CYP2D6,15 to 21 h
C1CCC(C(CC2CCCCN2)C2CCCCC2)CC1 (stereo not drawn) [Perhexiline],HALF LIFE,[1]; Table CYP2D6,12 to 18 h
OCCN1CCN(CCCN2c3ccccc3Sc3ccc(Cl)cc32)CC1 [Perphenazine],HALF LIFE,[1]; Table CYP2D6,9 to 12 h
CC(CN1c2ccccc2Sc2ccccc21)N(C)C (stereo not drawn) [Promethazine],HALF LIFE,[1]; Table CYP2D6,16 to 19 h
Fc1ccccc1C1=NCC(=S)N(CC(F)(F)F)c2ccc(Cl)cc21 [Quazepam],ORAL BIOAVAILABILITY,[2]; Table CYP3A4,29-35% ^
C=C[C@H]1C[N@@]2CC[C@H]1C[C@H]2[C@H](O)c1ccnc2ccc(OC)cc12 [Quinine],ORAL BIOAVAILABILITY,[2]; Table CYP3A4,76-88% ^
CCN1CCC[C@H]1CNC(=O)c1c(OC)ccc(Br)c1OC [Remoxipride],HALF LIFE,[1]; Table CYP2D6,3 to 6 h
CCOc1cc(CC(=O)N[C@@H](CC(C)C)c2ccccc2N2CCCCC2)ccc1C(=O)O [Repaglinide],ORAL BIOAVAILABILITY,[2]; Table CYP3A4,55%
Cc1nc2n(c(=O)c1CCN1CCC(c3noc4cc(F)ccc34)CC1)CCCC2 [Risperidone],HALF LIFE,[1]; Table CYP2D6,3 to 20 h
CN(CCOc1ccc(CC2SC(=O)NC2=O)cc1)c1ccccn1 (stereo not drawn) [Rosiglitazone],HALF LIFE,[1]; Table CYP2C9,3 to 4 h
CO[C@H]1C[C@@H]2CC[C@@H](C)[C@@](O)(O2)C(=O)C(=O)N2CCCC[C@H]2C(=O)O[C@H]([C@H](C)C[C@@H]2CC[C@@H](O)[C@H](OC)C2)CC(=O)[C@H](C)/C=C(\C)[C@@H](O)[C@@H](OC)C(=O)[C@H](C)C[C@H](C)/C=C/C=C/C=C/1C [Sirolimus],ORAL BIOAVAILABILITY,[2]; Table CYP3A4,14-27% ^
CC(C(=O)O)c1ccc(C(=O)c2cccs2)cc1 (stereo not drawn) [Suprofen],HALF LIFE,[1]; Table CYP2C9,2 to 4 h
Nc1c2c(nc3ccccc13)CCCC2 [Tacrine],HALF LIFE,[1]; in vivo,2 to 4 h
CC/C(=C(\c1ccccc1)c1ccc(OCCN(C)C)cc1)c1ccccc1 [Tamoxifen],HALF LIFE,[1]; Table CYP1A2,~120 to 170 h
same,HALF LIFE,[1]; Table CYP2C9,120 to 170 h
same,HALF LIFE,[1]; Table CYP2D6,120 to 170 h
CC[C@@H](c1cccc(O)c1)[C@@H](C)CN(C)C [Tapentadol],HALF LIFE,[1]; Table CYP2C9,4 to 5 h
same,HALF LIFE,[1]; Table CYP2D6,4 to 5 h
CN(C/C=C/C#CC(C)(C)C)Cc1cccc2ccccc12 [Terbinafine],HALF LIFE,[1]; Table CYP2C9,22 to 26 h
Cn1c(=O)c2[nH]cnc2n(C)c1=O [Theophylline],HALF LIFE,[1]; Table CYP1A2,1.5 to 9.8 h
CSc1ccc2c(c1)N(CCC1CCCCN1C)c1ccccc1S2 (stereo not drawn) [Thioridazine],HALF LIFE,[1]; Table CYP2D6,21 to 24 h
CCCCNC(=O)NS(=O)(=O)c1ccc(C)cc1 [Tolbutamide],HALF LIFE,[1]; Table CYP2C9,4.5 to 6.5 h
Cc1cccc(Nc2ccncc2S(=O)(=O)NC(=O)NC(C)C)c1 [Torasemide],HALF LIFE,[1]; Table CYP2C9,2.2 to 3.8 h
COc1cccc(C2(O)CCCCC2CN(C)C)c1 (stereo not drawn) [Tramadol],HALF LIFE,[1]; in vivo,5.5 to 6.7 h
CN1[C@@H]2CC[C@H]1C[C@@H](OC(=O)c1c[nH]c3ccccc13)C2 [Tropisetron],HALF LIFE,[1]; Table CYP2D6,5.6 to 8.6 h
CCCc1nc(C)c2c(=O)[nH]c(-c3cc(S(=O)(=O)N4CCN(CC)CC4)ccc3OCC)nn12 [Vardenafil],ORAL BIOAVAILABILITY,[2]; Table CYP3A4,15-44% ^
CC(c1cc2ccccc2s1)N(O)C(N)=O (stereo not drawn) [Zileuton],HALF LIFE,[1]; Table CYP1A2,2.5 to 3.2 h
CN(C)CCc1c[nH]c2ccc(C[C@H]3COC(=O)N3)cc12 [Zolmirripran],ORAL BIOAVAILABILITY,"[2]; Table of Exemplary Drugs, CYP1A2",~40%
